Values joined by “and” are separate entries in the source; they are usually repeats but may differ in a detail not shown here. Equal values may be shown once. Toxic doses and inconclusive results are not listed. How the source made its calls: active means survival T/C of 150% or more; inactive means T/C below 125% in these data.
Tested on: P388 leukemia ip, CD2F1 mice, survival T/C
Test: NCI In Vivo Anticancer Drug Screen. Data for tumor model P388 Leukemia (intraperitoneal) in CD2F1 (CDF1) mice
Details: endpoint: median survival time, higher = longer survival
Outline: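 Mice carrying the transplanted tumor received test compound or vehicle. Survival was recorded in each group, and the value is the treated-group measurement divided by that of the vehicle-treated control group.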

[1] = dose: 50.0 mg/kg/injection, schedule: Q04DX003 (ip), vehicle: saline with Tween-80
[2] = dose: 100.0 mg/kg/injection, schedule: Q04DX003 (ip), vehicle: saline with Tween-80
[3] = dose: 200.0 mg/kg/injection, schedule: Q04DX003 (ip), vehicle: saline with Tween-80
[4] = dose: 12.5 mg/kg/injection, schedule: Q01DX009 (ip), vehicle: saline
[5] = dose: 6.25 mg/kg/injection, schedule: Q01DX005 (ip), vehicle: Klucel (hydroxypropylcellulose) (HPC)
[6] = dose: 12.5 mg/kg/injection, schedule: Q01DX005 (ip), vehicle: Klucel (hydroxypropylcellulose) (HPC)
[7] = dose: 25.0 mg/kg/injection, schedule: Q01DX009 (ip), vehicle: saline with Tween-80
[8] = dose: 50.0 mg/kg/injection, schedule: Q01DX009 (ip), vehicle: saline with Tween-80
[9] = dose: 100.0 mg/kg/injection, schedule: Q01DX009 (ip), vehicle: saline with Tween-80
[10] = dose: 200.0 mg/kg/injection, schedule: Q01DX009 (ip), vehicle: saline with Tween-80
[11] = dose: 100.0 mg/kg/injection, schedule: Q01DX009 (ip), vehicle: saline

Measured: T/C

O=C(CC(O)(C(F)(F)F)C(F)(F)F)c1ccc(Cl)cc1
inactive: [1] 104 % of control | [2] 100 % of control | [3] 104 % of control

CC(C)=CCC(OC(=O)C=C(C)C)c1cc(O)c2c(O)ccc(O)c2c1O.[Co] (stereo unspecified)
inactive: dose: 100.0 mg/kg/injection, schedule: Q01DX001 (ip), vehicle: saline with Tween-80 103 % of control | dose: 200.0 mg/kg/injection, schedule: Q01DX001 (ip), vehicle: saline with Tween-80 101 % of control | dose: 400.0 mg/kg/injection, schedule: Q01DX001 (ip), vehicle: saline with Tween-80 113 % of control

CCCCCCCCCCCCCCCCSc1nc2ccc(N=Cc3ccccc3O)cc2s1
inactive: dose: 100.0 mg/kg/injection, schedule: Q04DX003 (ip), vehicle: Klucel (hydroxypropylcellulose) (HPC) 92 % of control | dose: 200.0 mg/kg/injection, schedule: Q04DX003 (ip), vehicle: Klucel (hydroxypropylcellulose) (HPC) 90 % of control | dose: 400.0 mg/kg/injection, schedule: Q04DX003 (ip), vehicle: Klucel (hydroxypropylcellulose) (HPC) 91 % of control

C1C[N-]CC[N-]CC[N-]CC[N-]1.[Cl][Rh][Cl]
inactive: dose: 0.66 mg/kg/injection, schedule: Q01DX009 (ip), vehicle: saline 117 % of control | dose: 1.0 mg/kg/injection, schedule: Q01DX009 (ip), vehicle: saline 115 % of control | dose: 1.5 mg/kg/injection, schedule: Q01DX009 (ip), vehicle: saline 115 % of control | dose: 2.25 mg/kg/injection, schedule: Q01DX009 (ip), vehicle: saline 108 % of control | dose: 3.13 mg/kg/injection, schedule: Q01DX009 (ip), vehicle: saline 121 % of control | dose: 6.25 mg/kg/injection, schedule: Q01DX009 (ip), vehicle: saline 116 % of control | [4] 108 % of control

COc1cc2c(cc1OC)-c1c(oc3c(CCC(C)C)c(O)ccc3c1=O)CO2
inactive: [5] 99 % of control | [6] 92 % of control and 94 % of control | dose: 25.0 mg/kg/injection, schedule: Q01DX005 (ip), vehicle: Klucel (hydroxypropylcellulose) (HPC) 88 % of control and 94 % of control | dose: 50.0 mg/kg/injection, schedule: Q01DX005 (ip), vehicle: Klucel (hydroxypropylcellulose) (HPC) 86 % of control | dose: 100.0 mg/kg/injection, schedule: Q01DX005 (ip), vehicle: Klucel (hydroxypropylcellulose) (HPC) 86 % of control

OC(COc1cccc(C(F)(F)F)c1)CN1CCN(c2ccc(F)cc2)CC1 (stereo unspecified)
inactive: dose: 12.5 mg/kg/injection, schedule: Q01DX009 (ip), vehicle: saline with Tween-80 100 % of control | dose: 25.0 mg/kg/injection, schedule: Q01DX009 (ip), vehicle: distilled water + Tween-80 106 % of control | [7] 106 % of control | dose: 50.0 mg/kg/injection, schedule: Q01DX009 (ip), vehicle: distilled water + Tween-80 108 % of control | [8] 124 % of control

CN(C=O)S(C)(=O)=O
inactive: [8] 100 % of control | [9] 100 % of control | [10] 100 % of control

C[CH2][Sn]([CH2]C)([O]c1cccccc1=O)[O]c1cccccc1=O
inactive: dose: 100.0 mg/kg/injection, schedule: Q01DX001 (ip), vehicle: Klucel (hydroxypropylcellulose) (HPC) 116 % of control | dose: 200.0 mg/kg/injection, schedule: Q01DX001 (ip), vehicle: Klucel (hydroxypropylcellulose) (HPC) 110 % of control | dose: 400.0 mg/kg/injection, schedule: Q01DX001 (ip), vehicle: Klucel (hydroxypropylcellulose) (HPC) 110 % of control

Oc1ccccc1C=NCCC[N-]CCCN=Cc1ccccc1O.[Co]
inactive: [4] 113 % of control | [11] 119 % of control

C=C(C(=O)O)C(N)C(=O)O (stereo unspecified)
inactive: dose: 25.0 mg/kg/injection, schedule: Q01DX005 (ip), vehicle: saline 98 % of control | dose: 50.0 mg/kg/injection, schedule: Q01DX005 (ip), vehicle: saline 98 % of control | dose: 100.0 mg/kg/injection, schedule: Q01DX005 (ip), vehicle: saline 112 % of control | dose: 200.0 mg/kg/injection, schedule: Q01DX005 (ip), vehicle: saline 97 % of control | dose: 400.0 mg/kg/injection, schedule: Q01DX005 (ip), vehicle: saline 96 % of control

COc1ccc(C2C3=C(CCC(CN(C)C)C3=O)OC3=C2C(=O)C(CN(C)C)CC3)cc1 (stereo unspecified)
inactive: dose: 60.0 mg/kg/injection, schedule: Q01DX005 (ip), vehicle: saline 102 % of control | dose: 120.0 mg/kg/injection, schedule: Q01DX005 (ip), vehicle: saline 102 % of control

CCCCCCCCCCCCN(C)S(=O)(=O)c1ccc(Cl)c(N)c1
inactive: [1] 95 % of control | [2] 100 % of control | [3] 95 % of control

CCCCCCC(=O)/C=C/c1ccc(OC)c(OC)c1OC
inactive: [8] 96 % of control | [9] 96 % of control | [10] 102 % of control

CN(/N=N/N(C)c1ccccc1)c1ccccc1
inactive: [7] 103 % of control and 93 % of control | dose: 44.0 mg/kg/injection, schedule: Q01DX009 (ip), vehicle: saline with Tween-80 118 % of control | [8] 101 % of control and 107 % of control | dose: 66.0 mg/kg/injection, schedule: Q01DX009 (ip), vehicle: saline with Tween-80 104 % of control | [9] 98 % of control and 110 % of control and 90 % of control | dose: 150.0 mg/kg/injection, schedule: Q01DX009 (ip), vehicle: saline with Tween-80 100 % of control | [10] 103 % of control and 94 % of control | dose: 400.0 mg/kg/injection, schedule: Q01DX009 (ip), vehicle: saline with Tween-80 100 % of control and 86 % of control

N#CC(=N)C(C#N)=Nc1c(O)[nH]c2ccc(Br)cc12
inactive: dose: 50.0 mg/kg/injection, schedule: Q01DX009 (ip), vehicle: saline 100 % of control | [11] 94 % of control | dose: 200.0 mg/kg/injection, schedule: Q01DX009 (ip), vehicle: saline 91 % of control

CN(c1ccc(C2=NCCN2)cc1)S(=O)(=O)c1ccc(Cc2ccc(S(=O)(=O)N(C)c3ccc(C4=NCCN4)cc3)cc2)cc1
inactive: [5] 103 % of control | [6] 97 % of control

OCCCNc1nc2cc(Cl)ccc2o1
inactive: dose: 60.0 mg/kg/injection, schedule: Q01DX005 (ip), vehicle: saline with Tween-80 119 % of control | dose: 120.0 mg/kg/injection, schedule: Q01DX005 (ip), vehicle: saline with Tween-80 103 % of control | dose: 240.0 mg/kg/injection, schedule: Q01DX005 (ip), vehicle: saline with Tween-80 100 % of control

CC[CH2][Pb]([CH2]CC)([CH2]CC)[O]C(=O)C1CCCCC1
inactive: dose: 1.25 mg/kg/injection, schedule: Q01DX009 (ip), vehicle: saline with Tween-80 105 % of control and 97 % of control | dose: 2.5 mg/kg/injection, schedule: Q01DX009 (ip), vehicle: saline with Tween-80 111 % of control and 122 % of control | dose: 5.0 mg/kg/injection, schedule: Q01DX009 (ip), vehicle: saline with Tween-80 122 % of control | dose: 10.0 mg/kg/injection, schedule: Q01DX009 (ip), vehicle: saline with Tween-80 114 % of control

CN1C(=O)N(CCCl)C(=O)C(C)(C2=CCCCC2)C1=O (stereo unspecified)
inactive: dose: 50.0 mg/kg/injection, schedule: Q01DX009 (ip), vehicle: Klucel (hydroxypropylcellulose) (HPC) 92 % of control | dose: 100.0 mg/kg/injection, schedule: Q01DX009 (ip), vehicle: Klucel (hydroxypropylcellulose) (HPC) 92 % of control | dose: 200.0 mg/kg/injection, schedule: Q01DX009 (ip), vehicle: Klucel (hydroxypropylcellulose) (HPC) 90 % of control

CC(C)CCCCC(O)C1C(=O)OCC1CO (stereo unspecified)
inactive: dose: 7.25 mg/kg/injection, schedule: Q01DX005 (ip), vehicle: distilled water + alcohol 101 % of control | dose: 14.5 mg/kg/injection, schedule: Q01DX005 (ip), vehicle: distilled water + alcohol 104 % of control | dose: 29.0 mg/kg/injection, schedule: Q01DX005 (ip), vehicle: distilled water + alcohol 111 % of control | dose: 58.0 mg/kg/injection, schedule: Q01DX005 (ip), vehicle: distilled water + alcohol 105 % of control

CCC/C=C/C=C\C(=O)O[C@@H]1[C@@H](C)[C@]2(O)[C@@H]3C=C(C)C(=O)[C@H]3CC(COC(C)=O)=C[C@H]2[C@@H]2C(C)(C)[C@]12OC(C)=O
inactive: dose: 0.38 mg/kg/injection, schedule: Q01DX005 (ip), vehicle: saline + alcohol 123 % of control and 92 % of control | dose: 0.38 mg/kg/injection, schedule: Q01DX005 (ip), vehicle: saline with Tween-80 100 % of control | dose: 0.75 mg/kg/injection, schedule: Q01DX005 (ip), vehicle: saline with Tween-80 105 % of control | dose: 1.5 mg/kg/injection, schedule: Q01DX005 (ip), vehicle: saline with Tween-80 103 % of control | dose: 3.0 mg/kg/injection, schedule: Q01DX005 (ip), vehicle: saline with Tween-80 117 % of control

O=c1cc(O)cc[nH]1
inactive: dose: 400.0 mg/kg/injection, schedule: Q01DX009 (ip), vehicle: saline 100 % of control and 96 % of control | dose: 600.0 mg/kg/injection, schedule: Q01DX009 (ip), vehicle: saline 101 % of control and 106 % of control
